{"source": "patent US20100160454A1", "about": "“ANTIMICROBIAL AGENTS, COMPOSITIONS AND PRODUCTS CONTAINING THE SAME, AND METHODS OF USING THE COMPOSITIONS AND PRODUCTS” (Eastman Chemical Company, priority 2008, published 2010)", "assay_in_all_cases": "Microbiological challenge testing in BPW broth, graded subculture counts", "format_in_all_cases": "cell-based", "key": {"[1]": {"test_system": "Streptococcus mutans ATCC 35668", "summary_of_the_method": "(§1)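 Strains grown in TSB with 1% dextrose at 35 °C for ≥96 h. Inoculum added to BPW broth with 1% dextrose, with or without test material (w/v), to 10^5–10^6 CFU/mL at time zero. Counts by spread-plating serial 1:10 dilutions in pH 7.2 phosphate buffer on PCA, incubated at 35 °C for ≥48 h.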"}, "[2]": {"test_system": "Pseudomonas aeruginosa Wild type", "conditions": "P. aeruginosa", "summary_of_the_method": "as §1"}, "[3]": {"test_system": "Bacillus subtilis Wild type", "summary_of_the_method": "as §1"}, "[4]": {"test_system": "Candida albicans Wild type", "conditions": "C. albicans", "summary_of_the_method": "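Wild-type C. albicans grown in TSB with 1% dextrose at 22 °C, then adjusted by turbidity and hemocytometer to a 10^8 CFU/mL challenge confirmed on SABD plates. Challenge added to BPW broth containing 1% dextrose, giving 10^5 to 10^6 CFU/mL at time zero; controls in triplicate. Counts by serial dilution and spread-plating after at least 48 h incubation.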"}, "[5]": {"test_system": "Aspergillus niger Wild type", "conditions": "A. niger", "summary_of_the_method": "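Wild-type A. niger, grown in TSB with 1% dextrose at 22 °C and on SABD until sporulation, was adjusted to 1.0×10^8 spores/vegetative cells (hemocytometer). It was inoculated in triplicate into BPW with 1% dextrose to give 10^5 to 10^6 CFU/mL at time zero. Counts were by spread plate on SABD, ≥48 h at 22 °C, CFU/mL = count × dilution factor.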"}}, "data": [{"smiles": "CC1(C)C(O)C(C)(C)C1O", "note": "(stereo not drawn) [TMCBD, 2,2,4,4-tetramethyl-1,3-cyclobutanediol]", "values": [{"measurement": "S. mutans growth grade, 3 day", "setting": "[1]; 0.5% weight/volume", "result": "4 (1000 to 10,000 colonies countable (thus 10,000 CFU/mL to 100,000 CFU/mL))"}, {"measurement": "S. mutans growth grade, 13 day", "setting": "[1]; 0.5% weight/volume", "result": "4 (1000 to 10,000 colonies countable (thus 10,000 CFU/mL to 100,000 CFU/mL))"}, {"measurement": "S. mutans growth grade, 30 day", "setting": "[1]; 0.5% weight/volume", "result": "4 (1000 to 10,000 colonies countable (thus 10,000 CFU/mL to 100,000 CFU/mL))"}, {"measurement": "S. mutans growth grade, 3 day", "setting": "[1]; 1.25% weight/volume", "result": "4 (1000 to 10,000 colonies countable (thus 10,000 CFU/mL to 100,000 CFU/mL))"}, {"measurement": "S. mutans growth grade, 13 day", "setting": "[1]; 1.25% weight/volume", "result": "4 (1000 to 10,000 colonies countable (thus 10,000 CFU/mL to 100,000 CFU/mL))"}, {"measurement": "S. mutans growth grade, 30 day", "setting": "[1]; 1.25% weight/volume", "result": "4 (1000 to 10,000 colonies countable (thus 10,000 CFU/mL to 100,000 CFU/mL))"}, {"measurement": "S. mutans growth grade, 3 day", "setting": "[1]; 2.5% weight/volume", "result": "3 (100 to 1000 colonies (thus 1000 to 10,000 CFU/mL))"}, {"measurement": "S. mutans growth grade, 13 day", "setting": "[1]; 2.5% weight/volume", "result": "1 (0 to 51 colonies counted (thus 10 to 510 CFU/mL based on 0.1-mL sample))"}, {"measurement": "S. mutans growth grade, 30 day", "setting": "[1]; 2.5% weight/volume", "result": 0}, {"measurement": "S. mutans growth grade, 3 day", "setting": "[1]; 5.0% weight/volume", "result": 0}, {"measurement": "S. mutans growth grade, 13 day", "setting": "[1]; 5.0% weight/volume", "result": 0}, {"measurement": "S. mutans growth grade, 30 day", "setting": "[1]; 5.0% weight/volume", "result": 0}, {"measurement": "Grade", "setting": "[2]; 0.5% (wt/vol), 3 day", "result": "5 (More than 10,000 colonies estimated (thus more than 100,000 CFU/mL))"}, {"measurement": "Grade", "setting": "[2]; 0.5% (wt/vol), 13 day", "result": "5 (More than 10,000 colonies estimated (thus more than 100,000 CFU/mL))"}, {"measurement": "Grade", "setting": "[2]; 0.5% (wt/vol), 30 day", "result": "5 (More than 10,000 colonies estimated (thus more than 100,000 CFU/mL))"}, {"measurement": "Grade", "setting": "[2]; 1.25% (wt/vol), 3 day", "result": "4 (1000 to 10,000 colonies countable (thus 10,000 CFU/mL to 100,000 CFU/mL))"}, {"measurement": "Grade", "setting": "[2]; 1.25% (wt/vol), 13 day", "result": "4 (1000 to 10,000 colonies countable (thus 10,000 CFU/mL to 100,000 CFU/mL))"}, {"measurement": "Grade", "setting": "[2]; 1.25% (wt/vol), 30 day", "result": "4 (1000 to 10,000 colonies countable (thus 10,000 CFU/mL to 100,000 CFU/mL))"}, {"measurement": "Grade", "setting": "[2]; 2.5% (wt/vol), 3 day", "result": "4 (1000 to 10,000 colonies countable (thus 10,000 CFU/mL to 100,000 CFU/mL))"}, {"measurement": "Grade", "setting": "[2]; 2.5% (wt/vol), 13 day", "result": "3 (100 to 1000 colonies (thus 1000 to 10,000 CFU/mL))"}, {"measurement": "Grade", "setting": "[2]; 2.5% (wt/vol), 30 day", "result": "4 (1000 to 10,000 colonies countable (thus 10,000 CFU/mL to 100,000 CFU/mL))"}, {"measurement": "Grade", "setting": "[2]; 5.0% (wt/vol), 3 day", "result": "3 (100 to 1000 colonies (thus 1000 to 10,000 CFU/mL))"}, {"measurement": "Grade", "setting": "[2]; 5.0% (wt/vol), 13 day", "result": "1 (0 to 51 colonies counted (thus 10 to 510 CFU/mL based on 0.1-mL sample))"}, {"measurement": "Grade", "setting": "[2]; 5.0% (wt/vol), 30 day", "result": 0}, {"measurement": "B. subtillis growth grade, 3 day", "setting": "[3]; 0.5% weight/volume", "result": "4 (1000 to 10,000 colonies countable (thus 10,000 CFU/mL to 100,000 CFU/mL))"}, {"measurement": "B. subtillis growth grade, 14 day", "setting": "[3]; 0.5% weight/volume", "result": "4 (1000 to 10,000 colonies countable (thus 10,000 CFU/mL to 100,000 CFU/mL))"}, {"measurement": "B. subtillis growth grade, 30 day", "setting": "[3]; 0.5% weight/volume", "result": "4 (1000 to 10,000 colonies countable (thus 10,000 CFU/mL to 100,000 CFU/mL))"}, {"measurement": "B. subtillis growth grade, 3 day", "setting": "[3]; 1.25% weight/volume", "result": "4 (1000 to 10,000 colonies countable (thus 10,000 CFU/mL to 100,000 CFU/mL))"}, {"measurement": "B. subtillis growth grade, 14 day", "setting": "[3]; 1.25% weight/volume", "result": "4 (1000 to 10,000 colonies countable (thus 10,000 CFU/mL to 100,000 CFU/mL))"}, {"measurement": "B. subtillis growth grade, 30 day", "setting": "[3]; 1.25% weight/volume", "result": "4 (1000 to 10,000 colonies countable (thus 10,000 CFU/mL to 100,000 CFU/mL))"}, {"measurement": "B. subtillis growth grade, 3 day", "setting": "[3]; 2.5% weight/volume", "result": "4 (1000 to 10,000 colonies countable (thus 10,000 CFU/mL to 100,000 CFU/mL))"}, {"measurement": "B. subtillis growth grade, 14 day", "setting": "[3]; 2.5% weight/volume", "result": "4 (1000 to 10,000 colonies countable (thus 10,000 CFU/mL to 100,000 CFU/mL))"}, {"measurement": "B. subtillis growth grade, 30 day", "setting": "[3]; 2.5% weight/volume", "result": "4 (1000 to 10,000 colonies countable (thus 10,000 CFU/mL to 100,000 CFU/mL))"}, {"measurement": "B. subtillis growth grade, 3 day", "setting": "[3]; 5.0% weight/volume", "result": "4 (1000 to 10,000 colonies countable (thus 10,000 CFU/mL to 100,000 CFU/mL))"}, {"measurement": "B. subtillis growth grade, 14 day", "setting": "[3]; 5.0% weight/volume", "result": "2 (52 to 100 colonies counted (thus 520 to 1000 CFU/mL))"}, {"measurement": "B. subtillis growth grade, 30 day", "setting": "[3]; 5.0% weight/volume", "result": 0}, {"measurement": "Grade", "setting": "[4]; 0.5% (wt/vol), 3 day", "result": "4 (1000 to 10,000 colonies countable (thus 10,000 CFU/mL to 100,000 CFU/mL))"}, {"measurement": "Grade", "setting": "[4]; 0.5% (wt/vol), 14 day", "result": "4 (1000 to 10,000 colonies countable (thus 10,000 CFU/mL to 100,000 CFU/mL))"}, {"measurement": "Grade", "setting": "[4]; 0.5% (wt/vol), 30 day", "result": "4 (1000 to 10,000 colonies countable (thus 10,000 CFU/mL to 100,000 CFU/mL))"}, {"measurement": "Grade", "setting": "[4]; 1.25% (wt/vol), 3 day", "result": "3 (100 to 1000 colonies (thus 1000 to 10,000 CFU/mL))"}, {"measurement": "Grade", "setting": "[4]; 1.25% (wt/vol), 14 day", "result": "4 (1000 to 10,000 colonies countable (thus 10,000 CFU/mL to 100,000 CFU/mL))"}, {"measurement": "Grade", "setting": "[4]; 1.25% (wt/vol), 30 day", "result": "4 (1000 to 10,000 colonies countable (thus 10,000 CFU/mL to 100,000 CFU/mL))"}, {"measurement": "Grade", "setting": "[4]; 2.5% (wt/vol), 3 day", "result": "3 (100 to 1000 colonies (thus 1000 to 10,000 CFU/mL))"}, {"measurement": "Grade", "setting": "[4]; 2.5% (wt/vol), 14 day", "result": "2 (52 to 100 colonies counted (thus 520 to 1000 CFU/mL))"}, {"measurement": "Grade", "setting": "[4]; 2.5% (wt/vol), 30 day", "result": "2 (52 to 100 colonies counted (thus 520 to 1000 CFU/mL))"}, {"measurement": "Grade", "setting": "[4]; 5.0% (wt/vol), 3 day", "result": "2 (52 to 100 colonies counted (thus 520 to 1000 CFU/mL))"}, {"measurement": "Grade", "setting": "[4]; 5.0% (wt/vol), 14 day", "result": 0}, {"measurement": "Grade", "setting": "[4]; 5.0% (wt/vol), 30 day", "result": 0}, {"measurement": "Grade", "setting": "[5]; 0.5% (wt/vol), 3 day", "result": 5}, {"measurement": "Grade", "setting": "[5]; 0.5% (wt/vol), 13 day", "result": 5}, {"measurement": "Grade", "setting": "[5]; 0.5% (wt/vol), 30 day", "result": 5}, {"measurement": "Grade", "setting": "[5]; 1.25% (wt/vol), 3 day", "result": 4}, {"measurement": "Grade", "setting": "[5]; 1.25% (wt/vol), 13 day", "result": 4}, {"measurement": "Grade", "setting": "[5]; 1.25% (wt/vol), 30 day", "result": 4}, {"measurement": "Grade", "setting": "[5]; 2.5% (wt/vol), 3 day", "result": 3}, {"measurement": "Grade", "setting": "[5]; 2.5% (wt/vol), 13 day", "result": "2 (Countable (10 to 100 colonies))"}, {"measurement": "Grade", "setting": "[5]; 2.5% (wt/vol), 30 day", "result": 3}, {"measurement": "Grade", "setting": "[5]; 5.0% (wt/vol), 3 day", "result": "2 (Countable (10 to 100 colonies))"}, {"measurement": "Grade", "setting": "[5]; 5.0% (wt/vol), 13 day", "result": 0}, {"measurement": "Grade", "setting": "[5]; 5.0% (wt/vol), 30 day", "result": 0}]}]}
